Measured values taken from PMC3055678 (ACS Medicinal Chemistry Letters, 2011).

Columns and labels:
BMK1 [1] = molecular target: T1, BMK1 (Homo sapiens, UniProt Q13164); assay: Ambit KINOMEscan single-point score; format: binding; settings: concentration of 10 μM
panel of 402 kinases = assay: Ambit KINOMEscan ATP-site competition binding, panel of 402 kinases; settings: concentration of 10 μM, Erk5 = BMK1
BMK1 [2] = molecular target: T1, BMK1; assay: EGF-stimulated BMK1 autophosphorylation in HeLa cells; settings: concentration of 1 μM

T1 sequence (Q13164 whole entry): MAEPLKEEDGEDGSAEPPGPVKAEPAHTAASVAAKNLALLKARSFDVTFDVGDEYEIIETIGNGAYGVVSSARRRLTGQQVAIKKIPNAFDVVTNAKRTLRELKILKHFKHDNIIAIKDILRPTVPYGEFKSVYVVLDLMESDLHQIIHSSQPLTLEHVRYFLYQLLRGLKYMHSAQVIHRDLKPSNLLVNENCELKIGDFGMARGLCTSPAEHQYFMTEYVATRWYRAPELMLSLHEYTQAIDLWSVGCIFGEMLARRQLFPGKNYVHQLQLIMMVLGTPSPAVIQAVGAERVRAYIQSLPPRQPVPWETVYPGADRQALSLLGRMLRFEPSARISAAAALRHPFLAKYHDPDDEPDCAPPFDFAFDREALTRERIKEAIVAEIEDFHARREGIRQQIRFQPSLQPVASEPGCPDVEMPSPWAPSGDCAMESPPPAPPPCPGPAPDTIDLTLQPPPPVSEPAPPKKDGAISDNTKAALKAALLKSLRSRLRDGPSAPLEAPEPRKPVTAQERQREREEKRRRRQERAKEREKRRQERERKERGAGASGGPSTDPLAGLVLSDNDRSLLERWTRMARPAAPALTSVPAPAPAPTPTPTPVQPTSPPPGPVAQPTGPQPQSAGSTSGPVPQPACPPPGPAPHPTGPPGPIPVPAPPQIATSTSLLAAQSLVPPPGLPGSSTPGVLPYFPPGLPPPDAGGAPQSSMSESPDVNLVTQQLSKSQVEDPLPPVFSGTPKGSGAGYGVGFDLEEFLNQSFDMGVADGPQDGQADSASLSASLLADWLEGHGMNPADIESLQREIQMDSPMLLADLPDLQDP

Row | ambit score against BMK1 (BMK1 [1]) | inhibition of BMK1 autophosphorylation (BMK1 [2]) | SMILES | kinase hits (kinases that exhibited greater than 95% displacement from an immobilized ligand) (panel of 402 kinases)
1 | 0.5 | – | COc1cc(N2CCN(C)CC2)ccc1Nc1ncc2c(n1)N(C)c1ccccc1C(=O)N2 [compound 10] | ABL1(F317I), BRK, C-FMS, DCAMKL1, DCAMKL2, ERK5, FRK, GAK, KIT(L576P), MYLK4, TNK1, TNK2
2 | 0 | significantly inhibited | COc1cc(N2CCN(C)CC2)ccc1Nc1ncc2c(n1)N(C)c1ccccc1C(=O)N2C [compound 11] | DCAMKL1, DCAMKL2, ERK5, FRK, MNK2, PKD1, PKD2, RSK4∼b, TAO1, TAO3, TNK1, TNK2, ULK1, ULK2
